Columns and labels:
[1] = system: WT mice; assay: Meningeal lymphatic vessel ablation (Visudyne plus photoconversion): lymphatic morphology; assay type: in vivo, mouse; conditions: 1 week after Visudyne i.c.m. plus transcranial photoconversion
Protocol: (§1) Adult 2 months-old WT mice were injected (i.c.m.) with Visudyne (5 μL) followed by a transcranial photoconversion step (Vis./photo.) to ablate meningeal lymphatic vessels. Control mice were injected with Visudyne without photoconversion (Vis.). One week later, mice were injected with 5 μL of a suspension of fluorescent microspheres (1 μm in diameter) into the CSF and 15 minutes later the lymphatic vessel afferent to the deep cervical lymph node (dCLN) was imaged by in vivo stereomicroscopy. Representative images of skull cap show microspheres and lymphatic vessels stained for LYVE-1 around the confluence of sinuses (COS) and transverse sinus (TS) at the dorsal brain meninges or around the sigmoid (SS) and petrosquamosal (PSS) sinuses at the basal brain meninges (scale bars, 500 μm). […]
Immunohistochemistry, imaging and quantifications. […]

[2] = system: WT mice; assay: In vivo measurement of CSF outflow into dCLNs (fluorescent microspheres); parameters: species or system mouse; conditions: 1 week after photoablation
Protocol: as §1
In vivo measurement of CSF outflow into dCLNs. […] Fluorescent microsphere drainage was analyzed in FIJI software by drawing a line demarcating the draining lymphatic vessel afferent to the dCLN and manually counting the beads passing the line by a blinded experimenter. […]

verteporfin [Visudyne]
lymphatic vasculature lining the transverse sinus (dorsal meninges) [1]: efficient ablation
lymphatic vessels around the SS and PSS (basal meninges) [1]: no significant changes
CSF drainage (microspheres from the CSF into the dCLNs) [2]: significant reduction
